Test results: US20100217003A1, “1,2,3,4-TETRAHYDROISOQUINOLINE DERIVATIVES HAVING EFFECTS OF PREVENTING AND TREATING DEGENERATIVE AND INFLAMMATORY DISEASES” (priority 2006, published 2010)

Key:
IL-1β mRNA = assay: Expression of IL-1β genes in LPS-stimulated BV-2 cells (RT-PCR); type: cell-based, mouse
Experimental: RT-PCR for GTPCH, iNOS, TNF-α, IL-1β and COX-2
5 ? each of total RNA samples isolated from BV-2 cells were subjected to reverse-transcription (RT), and then polymerase chain reaction (PCR) for 30 cycles under the conditions of 94° C. for 30 seconds, 60° C. for 40 seconds and 72° C. for one minute. Primers used in the PCR were as follows: iNOS (forward, ATGTCCGAAG-CAAACATCAC; reverse, TAATGTC CAGGAAGTAGGTG), TNF-α (forward, CA-[…] reverse, CAGAGCAATGACTC-CAAAGTAGACCT), IL-1β (forward, […]; reverse, CAGGACAGGTAT AGATTCTTTCCTTT), COX-2 (forward, […]; reverse, […]), GTPCH (forward, GGATACCAGGAGACCAT CTCA; reverse, TAGCATGGTGC-TAGTGACAGT). RT-PCR for B2M was simultaneously performed as internal control. The PCR products were subjected to electrophoresis in a 1.5% agarose gel, thereby confirming the presence of a desired size of single band.
The assay was performed to investigate whether EHMTIQ (11a) affects IL-β production in an activated microglial cell. LPS-stimulated BV-2 cell smaples were treated with various concentrations of EHMTIQ (11a) and the expression of IL-1β genes was estimated by RT-PCR. The results are illustrated in FIG. 4.

[1] = Drug stability against liver microsomal enzymes; type: in vitro ADME, rat
Experimental: Evaluation for Drug Stability
1 mM EHMTIQ (11a) was added to 1 mg samples of white rat liver microsomes, and the samples were incubated at 37° C. for 0, 30, 120 and 240 minutes in the presence of a NADPH-regeneration system (2.6 mM β-NADP^+, 10 mM glucose-6-phosphate, 4 UI/ml glucose-6-phosphate dehydrogenase and 10 mM MgCl2). Perchloric acid was added to the sample to make a final concentration of 500 mM and then the reaction was stopped. The reaction mixture was centrifuged at 16,000×g for 20 minutes. The supernatant solution (120 l) was purified using a Waters HPLC system [717 plus autosampler, 515 pump, and Symmetry C18 column (4.6 mm×150 mm, […])] using a 5-30% linear gradient of acetonitrile as mobile phase. EHMTIQ (11a) was detected at 254 nm using a Waters 486 UV detector and analyzed using EMPOWER software (Millipore Corporation, Milford, Mass., USA).
Since almost all micromolecules are degraded by enzymes in the liver, the stability of a medicine to these enzymes is very important. To evaluate bioavailability of EHMTIQ (11a) in vivo, the degradation rate of EHMTIQ (11a) by liver microsomal enzyme was measured, and neutralized to remaining EHMTIQ after exposure to liver microsomes.

For `CCC(=O)N1CCc2cc(OC)c(O)cc2C1` [EHMTIQ (11a), 2-ethylcarbonyl-7-hydroxy-6-methoxy-1,2,3,4-tetrahydroisoquinoline], the “mRNA level of IL-1β” value (IL-1β mRNA; 2.5 (unit as image)) was 74±0.7%, the “mRNA level of IL-1β” value (IL-1β mRNA; 100 (unit as image)) was “significant decrease in the LPS effect” and the EHMTIQ degraded ([1]; 2-hour exposure to liver microsomes) was “about 12.52%”. The EHMTIQ remained ([1]; 30-minute exposure to liver microsomes) was ~95% and the “degeneration rate of EHMTIQ” value ([1]; liver microsomes, NADPH-regeneration system) was 1.115±0.203 nmole (EHMTIQ)/min/mg (liver microsomal protein).
